Results reported in PubChem BioAssay AID588835 (The Scripps Research Institute Molecular Screening Center, 2011).
Activity calls are given as the source filed them. How the calls were made is not given here.

Columns and labels:
[1] = target: Prolyl endopeptidase (Mus musculus) (UniProt Q9QUR6); experiment: in situ PREP and ABHD6 off-target inhibition, dose response, selectivity assay for PME-1 inhibitor project, cell-based, fluorescence, gel-based ABPP (AID 588835); conditions: in situ gel-based competitive ABPP, PREP, IC50, second panel column
Sequence of Prolyl endopeptidase (Mus musculus) (Q9QUR6 whole entry, looked up): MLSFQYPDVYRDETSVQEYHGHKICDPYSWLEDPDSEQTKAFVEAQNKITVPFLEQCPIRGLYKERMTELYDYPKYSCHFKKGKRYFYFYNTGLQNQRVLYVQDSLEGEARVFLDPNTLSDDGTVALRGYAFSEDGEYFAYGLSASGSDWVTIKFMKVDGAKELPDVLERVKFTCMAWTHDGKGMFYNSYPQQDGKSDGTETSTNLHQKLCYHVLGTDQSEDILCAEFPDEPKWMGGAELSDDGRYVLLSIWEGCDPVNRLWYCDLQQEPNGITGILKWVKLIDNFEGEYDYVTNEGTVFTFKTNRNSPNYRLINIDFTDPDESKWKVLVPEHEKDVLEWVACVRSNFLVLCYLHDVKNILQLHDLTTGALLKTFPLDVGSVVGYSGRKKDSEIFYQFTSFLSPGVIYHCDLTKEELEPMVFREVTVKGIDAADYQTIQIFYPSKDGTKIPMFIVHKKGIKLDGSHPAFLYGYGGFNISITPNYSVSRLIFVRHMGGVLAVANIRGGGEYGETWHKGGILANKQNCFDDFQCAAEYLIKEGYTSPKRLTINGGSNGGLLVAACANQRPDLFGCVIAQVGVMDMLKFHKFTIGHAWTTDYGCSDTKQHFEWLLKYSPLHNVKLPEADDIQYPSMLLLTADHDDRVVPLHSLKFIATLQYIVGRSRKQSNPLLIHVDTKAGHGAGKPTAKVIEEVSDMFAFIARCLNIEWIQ

[2] = target: Monoacylglycerol lipase ABHD6 (Mus musculus) (UniProt Q8R2Y0); experiment: as above; conditions: in situ gel-based competitive ABPP
Sequence of Monoacylglycerol lipase ABHD6 (Mus musculus) (Q8R2Y0 whole entry, looked up): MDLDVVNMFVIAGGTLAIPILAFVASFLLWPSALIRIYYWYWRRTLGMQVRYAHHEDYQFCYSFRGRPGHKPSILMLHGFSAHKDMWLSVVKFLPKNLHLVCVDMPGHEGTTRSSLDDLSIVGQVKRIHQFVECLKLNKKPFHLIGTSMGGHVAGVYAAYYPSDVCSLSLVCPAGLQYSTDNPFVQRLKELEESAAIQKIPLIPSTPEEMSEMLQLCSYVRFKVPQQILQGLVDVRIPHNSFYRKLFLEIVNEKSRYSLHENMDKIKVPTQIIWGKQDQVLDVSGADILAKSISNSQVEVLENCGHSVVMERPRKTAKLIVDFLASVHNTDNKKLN

Q: For CC[C@@]1(c2ccc(C)cc2)C(=O)N(C(=O)OC(C)C)N1C(=O)OC(C)C, which IC50 [1] is on record?
A: 2340 nM

Q: What about the IC50 [2] of the same compound?
A: inactive
